{"source": "patent US20260265300A1", "about": "“TARGETING PRAC1 IN STEROID HORMONE DRIVEN CANCER” (Fred Hutchinson Cancer Center, priority 2023, published 2026)", "key": {"LNCaP-abl cells [1]": {"test_system": "LNCaP-abl cells", "experiment": "Proliferation of LNCaP-abl cells with enzalutamide by live cell imaging", "format": "cell-based", "conditions": "10 μM enzalutamide", "description": "Resistance to ARSI therapy is a major driver of PC related mortality. In this example, PRAC1-negative LNCaP-abl cells were grown in fully supplemented growth media (RPMI plus 10% FBS) in the absence or presence of 10 μM enzalutamide. Cell proliferation was determined longitudinally by live cell imaging using a Cytation™ 5 imaging instrument. […] Restoring PRAC1 function can result in re-sensitization of ARSI therapy (FIG. 4)."}, "DU145": {"test_system": "DU145", "experiment": "Cell viability of androgen receptor negative DU145 cells (CellTiter-Blue, 72 hours)", "format": "cell-based", "conditions": "DU145 (AR negative)", "description": "(§1) Cell viability of androgen receptor negative and androgen receptor positive cells was tested in vitro. The androgen positive cell lines LNCaP and LNCaP-abl and the androgen receptor negative cell lines PC3 and DU145 were incubated with the PRAC-F6, carboxy terminal peptide including the TAT cell penetration peptide."}, "LNCaP-abl cells [2]": {"test_system": "LNCaP-abl cells", "experiment": "Cell viability of LNCaP-abl cells exposed to PRAC1 peptides (CellTiter-Blue, 72 hours)", "format": "cell-based", "conditions": "increasing concentrations of peptide", "description": "(§2) PRAC1-negative LNCaP-abl cells were grown and exposed to increasing concentrations of the cell-permeable peptides, and cell viability was measured after 72 hours using CellTiter-Blue® (Patel et al., Cancer Res. Commun. 2(5):277-285 2022. doi: 10.1158/2767-9764.crc-21-0156. Epub 2022 May 2). […] The PRAC-F6 peptide was further tested for cell permeability.\nas §1, with “peptide. Cell viability was measured after 72 hours using CellTiter-Blue®.” for “peptide.”\nLNCaP-abl cells were incubated with increasing concentrations of PRAC1 peptides, and cell viability was determined after 72 hours using CellTiter-Blue®. […]"}, "LNCaP-abl cells [3]": {"test_system": "LNCaP-abl cells", "conditions": "N-terminally FITC-labeled peptide, flow cytometry", "description": "as §2"}, "PC3": {"test_system": "PC3", "experiment": "Cell viability of androgen receptor negative PC3 cells (CellTiter-Blue, 72 hours)", "format": "cell-based", "conditions": "PC3 (AR negative)", "description": "as §1"}, "LNCaP": {"test_system": "LNCaP", "experiment": "Cell viability of androgen receptor positive LNCaP cells (CellTiter-Blue, 72 hours)", "format": "cell-based", "conditions": "LNCaP (AR positive)", "description": "as §1"}, "[4]": {"test_system": "human prostate cancer LAPC4-CR cells", "experiment": "In vivo prostate cancer xenograft model (LAPC4-CR in castrated NSG mice)", "conditions": "castrated male NSG mice, intraperitoneally daily, versus scrambled control peptide", "description": "The peptide was also tested in an in vivo in prostate cancer xenograft model. Male NOD SCID gamma (NSG) mice were chemically castrated by subcutaneous injection of degarelix. Mice were then engrafted with PRAC1-negative human prostate cancer LAPC4-CR cells. When tumors reached palpable size, PRAC1 peptide PRAC-F6 or a scrambled control peptide (sc) were delivered intraperitoneally daily. Tumor size was measured by caliper."}, "full-length AR": {"target": "T1, full-length AR (Homo sapiens, UniProt P10275)", "T1 construct": "made in house", "T1 sequence (P10275 1-920)": "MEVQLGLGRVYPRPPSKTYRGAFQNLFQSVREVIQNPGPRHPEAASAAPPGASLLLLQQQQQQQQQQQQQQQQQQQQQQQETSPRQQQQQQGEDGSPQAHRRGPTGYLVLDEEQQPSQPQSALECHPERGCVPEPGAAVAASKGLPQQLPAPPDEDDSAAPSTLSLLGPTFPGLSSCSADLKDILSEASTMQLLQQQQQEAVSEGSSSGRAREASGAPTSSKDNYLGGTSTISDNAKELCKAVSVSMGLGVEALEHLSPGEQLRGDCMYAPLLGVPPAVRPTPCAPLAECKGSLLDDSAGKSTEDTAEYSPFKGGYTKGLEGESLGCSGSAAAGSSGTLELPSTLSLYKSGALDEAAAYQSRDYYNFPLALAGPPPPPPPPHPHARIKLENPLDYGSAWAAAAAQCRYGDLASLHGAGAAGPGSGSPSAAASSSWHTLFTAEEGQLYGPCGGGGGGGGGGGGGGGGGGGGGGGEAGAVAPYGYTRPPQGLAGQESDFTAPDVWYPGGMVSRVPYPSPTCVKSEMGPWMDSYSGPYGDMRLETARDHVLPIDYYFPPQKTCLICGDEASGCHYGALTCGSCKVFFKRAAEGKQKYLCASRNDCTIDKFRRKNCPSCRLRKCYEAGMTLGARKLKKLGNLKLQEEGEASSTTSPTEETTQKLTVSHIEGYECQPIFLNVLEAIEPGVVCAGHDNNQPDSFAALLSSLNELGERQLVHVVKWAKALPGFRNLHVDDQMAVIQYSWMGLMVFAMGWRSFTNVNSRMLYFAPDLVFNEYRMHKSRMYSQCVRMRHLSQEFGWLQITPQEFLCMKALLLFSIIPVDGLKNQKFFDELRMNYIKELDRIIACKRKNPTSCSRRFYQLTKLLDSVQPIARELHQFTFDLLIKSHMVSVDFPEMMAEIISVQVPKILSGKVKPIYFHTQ", "experiment": "Binding to purified full-length AR and effect on its DNA binding activity", "format": "biochemical"}, "AR LBD": {"target": "T2, AR LBD (Homo sapiens, UniProt P10275)", "T2 sequence (P10275 669-900 limits assumed)": "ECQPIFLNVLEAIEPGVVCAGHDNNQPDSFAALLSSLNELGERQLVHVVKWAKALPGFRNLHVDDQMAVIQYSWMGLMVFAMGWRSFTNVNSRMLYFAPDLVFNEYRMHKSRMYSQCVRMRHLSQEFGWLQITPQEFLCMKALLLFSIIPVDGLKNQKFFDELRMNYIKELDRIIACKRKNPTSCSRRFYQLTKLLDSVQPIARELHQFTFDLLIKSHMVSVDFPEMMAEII", "experiment": "Recombinant protein-based binding assay by surface plasmon resonance", "conditions": "highly stringent conditions (0.5M NaCl)"}, "MCF7": {"test_system": "MCF7", "experiment": "Cell viability of MCF7 breast cancer cells (CellTiter-Blue)", "format": "cell-based", "conditions": "MCF7 (estrogen and progesterone receptor positive), relative to scrambled control peptide", "source_text": "Estrogen and progesterone receptor positive breast cancer cell line MCF7 with PRAC1 peptide […] FIG. 8A."}}, "note": "Entries after “also recorded” stand apart in the source; their conditions may differ. Read-outs that look alike come from different tables or passages of the source."}
{"compound": "CNC(=O)c1ccc(N2C(=S)N(c3ccc(C#N)c(C(F)(F)F)c3)C(=O)C2(C)C)cc1F", "note": "[enzalutamide]", "values": [{"measurement": "cell proliferation / sensitivity to enzalutamide", "setting": "LNCaP-abl cells [1]; LNCaP-abl cells transduced with control vector (RFP), RPMI plus 10% FBS", "value": "resistant to enzalutamide across a broad concentration range"}, {"measurement": "cell proliferation / sensitivity to enzalutamide", "setting": "LNCaP-abl cells [1]; LNCaP-abl cells with re-expression of PRAC1 (lentiviral ORF1)", "value": "sensitization to enzalutamide and significant growth suppression; also recorded: restoration of sensitivity to this drug"}]}
{"compound": "LFSLIRKHLLRKKRRQRRRG [PRAC1-F6, C-terminus of PRAC1 linked to the cell permeable TAT peptide]", "values": [{"measurement": "cell viability", "setting": "DU145", "value": "Only AR-expressing cell lines show profound dose-dependent decrease in cell viability"}, {"measurement": "cell viability", "setting": "DU145; listed as PRAC-F6", "value": "only AR-expressing cell lines show a profound loss of viability"}, {"measurement": "cell viability", "setting": "LNCaP-abl cells [2]", "value": "biologically active in reducing cell viability; also recorded: profound dose-dependent decrease in cell viability"}, {"measurement": "cell viability", "setting": "LNCaP-abl cells [2]; listed as PRAC-F6", "value": "profound loss of viability"}, {"measurement": "peptide uptake (cellular internalization)", "setting": "LNCaP-abl cells [3]; listed as PRAC-F6", "value": "rapid cellular internalization"}, {"measurement": "peptide uptake (cellular internalization)", "setting": "LNCaP-abl cells [3]; listed as SEQ ID NO:17", "value": "uptake"}, {"measurement": "cell viability", "setting": "PC3", "value": "Only AR-expressing cell lines show profound dose-dependent decrease in cell viability"}, {"measurement": "cell viability", "setting": "PC3; listed as PRAC-F6", "value": "only AR-expressing cell lines show a profound loss of viability"}, {"measurement": "cell viability", "setting": "LNCaP", "value": "profound dose-dependent decrease in cell viability"}, {"measurement": "cell viability", "setting": "LNCaP; listed as PRAC-F6", "value": "profound loss of viability"}, {"measurement": "tumor growth (tumor size by caliper)", "setting": "[4]", "value": "suppression of LAPC4-CR tumor growth"}, {"measurement": "tumor growth (tumor size by caliper)", "setting": "[4]; listed as PRAC-F6", "value": "suppression of tumor growth"}]}
{"compound": "MLACKVRQAGFWSPPLQREQRCCAPISQIKDRPILLPPRVLFSLIRKHLL (listed as Homo sapiens) [PRAC1, PRAC1 protein encoded by ORF1 of PRAC1 gene]", "values": [{"measurement": "binding to full-length AR and change of its DNA binding activity", "setting": "full-length AR", "value": "specifically binds and alters full-length AR's DNA binding activity"}, {"measurement": "binding to AR LBD", "setting": "AR LBD", "value": "specifically binds the AR LBD"}]}
{"compound": "PPRVLFSLARKHLLRKKRRQRRRG [SEQ ID NO:27, isoleucine-to-alanine substitution mutant]", "values": [{"measurement": "cell viability", "setting": "LNCaP-abl cells [2]", "value": "no effect on cell viability"}]}
{"compound": "PPRVLFSLIAKHLLRKKRRQRRRG [SEQ ID NO:28, arginine-to-alanine mutant]", "values": [{"measurement": "cell viability", "setting": "LNCaP-abl cells [2]", "value": "attenuated activity on cell viability"}]}
{"compound": "PPRVLFSLIRKHLLRKKRRQRRRG [SEQ ID NO:18]", "values": [{"measurement": "cell viability", "setting": "MCF7", "value": "dose-dependent decrease in cell viability; also recorded: dose-dependent decrease is cell viability"}, {"measurement": "cell viability", "setting": "LNCaP-abl cells [2]", "value": "profound anti-tumor cell activity"}]}
